Target: T1, KRAS G12C 1-169, his-tagged protein, GDP-loaded (Homo sapiens, UniProt P01116, G12C)
T1 construct: KRAS G12C 1-169, his-tagged protein, GDP-loaded
Test: Covalent binding (% modification) to KRAS G12C by mass spectrometry; note: test concentration or dose not given here

[1] = covalent binding to KRAS G12C after a three minute incubation period
[2] = covalent binding to KRAS G12C after a ten minute incubation period

Row | Structure (SMILES) | Binding % [1] | Binding % [2]
1 | C=CC(=O)N1C[C@H](C)N(c2nc(N3CC(N(C)C4CCC4)C3)nc3c(F)c(-c4c(C)ccc5[nH]ncc45)c(Cl)cc23)C[C@H]1C [Compound 143, 1-((2R,5S)-4-(6-chloro-2-(3-(cyclobutyl (methyl)amino)azetidin-1-yl)-8-fluoro-7-(5-methyl-1H-indazol-4-yl)quinazolin-4-yl)-2,5-dimethyl-piperazin-1-yl) prop-2-en-1-one] | +++ (+++ indicates binding activity greater than 90%) | 
2 | C=CC(=O)N1C[C@H](C)N(c2nc(N3CC4(CCCN(C)C4)C3)nc3c(F)c(-c4c(C)ccc5[nH]ncc45)c(Cl)cc23)C[C@H]1C [Compound 194, 1-((2R,5S)-4-(6-chloro-8-fluoro-7-(5-methyl-1H-indazol-4-yl)-2-(6-methyl-2,6-diazaspiro[3.5]nonan-2-yl)quinazolin-4-yl)-2,5-dimethyl-piperazin-1-yl) prop-2-en-1-one] | ++ (++ indicates binding activity from 50 to 90%) | 
3 | C=CC(=O)N1[C@H](C)CN(c2nc(NC3CCN(C4CC4)CC3)nc3c(F)c(-c4c(O)cccc4F)c(Cl)cc23)C[C@@H]1C [Compound 20, 1-((2R,6S)-4-(6-chloro-2-((1-cyclopropyl-piperidin-4-yl)amino)-8-fluoro-7-(2-fluoro-6-hydroxyphenyl)quinazolin-4-yl)-2,6-dimethyl-piperazin-1-yl) prop-2-en-1-one] |  | ++ (++ indicates binding activity from 50 to 90%)
4 | C=CC(=O)N1[C@H](C)CN(c2nc(OCCN(CC)CC)nc3c(F)c(-c4c(C)ccc5[nH]ncc45)c(Cl)cc23)C[C@@H]1C [Compound 46, 1-((2R,6S)-4-(6-Chloro-2-(2-(Diethylamino)Ethoxy)-8-Fluoro-7-(5-Methyl-1H-Indazol-4-Yl)Quinazolin-4-Yl)-2,6-Dimethylpiperazin-1-Yl)Prop-2-En-1-One] |  | ++ (++ indicates binding activity from 50 to 90%)
5 | C=CC(=O)N1[C@H](C)CN(c2nc(OC3CCN(C4CC4)CC3)nc3c(F)c(-c4c(C)ccc5[nH]ncc45)c(Cl)cc23)C[C@@H]1C [Compound 37, 1-((2S,6R)-4-(6-chloro-2-((1-cyclopropyl-piperidin-4-yl)oxy)-8-fluoro-7-(5-methyl-1H-indazol-4-yl)quinazolin-4-yl)-2,6-dimethyl-piperazin-1-yl) prop-2-en-1-one] |  | ++ (++ indicates binding activity from 50 to 90%)
6 | C=CC(=O)N1C[C@H](C)N(c2nc(N3CC(N(C)C)C3)nc3c(F)c(-c4c(C)ccc5cn[nH]c45)c(Cl)cc23)C[C@H]1C (atropisomer, axis not shown) [Compound 73, 1-((2R,5S)-4-((S)-6-chloro-2-(3-(dimethylamino)azetidin-1-yl)-8-fluoro-7-(6-methyl-1H-indazol-7-yl)quinazolin-4-yl)-2,5-dimethyl-piperazin-1-yl) prop-2-en-1-one] |  | + (+ indicates binding activity up to 50%)
7 | C=CC(=O)N1CCN(c2nc(OCCN(CC)CC)nc3c(F)c(-c4c(O)cccc4F)c(Cl)cc23)C[C@H]1C [Compound 85, 1-((2R)-4-(6-chloro-2-(2-(diethylamino)ethoxy)-8-fluoro-7-(2-fluoro-6-hydroxyphenyl)quinazolin-4-yl)-2-methyl-piperazin-1-yl) prop-2-en-1-one] | ++ (++ indicates binding activity from 50 to 90%) | 
8 | C=CC(=O)N1C[C@H](C)N(c2nc(N3CC(N(C)CC)C3)nc3c(F)c(-c4c(O)cccc4F)c(Cl)cc23)C[C@H]1C (atropisomer, axis not shown) [Compound 155, 1-((2R,5S)-4-(6-chloro-2-(3-(ethyl(methyl)amino)azetidin-1-yl)-8-fluoro-7-((R)-2-fluoro-6-hydroxyphenyl)quinazolin-4-yl)-2,5-dimethyl-piperazin-1-yl) prop-2-en-1-one] | + (+ indicates binding activity greater than 0% and up to 50%) | 
9 | C=CC(=O)N1CCN(c2nc(N3CC(O)C3)nc3c(F)c(-c4c(O)cccc4F)c(Cl)cc23)[C@@H](C)C1 [Compound 34, 1-((3S)-4-(6-chloro-8-fluoro-7-(2-fluoro-6-hydroxyphenyl)-2-(3-hydroxy-azetidin-1-yl)quinazolin-4-yl)-3-methyl-piperazin-1-yl) prop-2-en-1-one] |  | ++ (++ indicates binding activity from 50 to 90%)
10 | C=CC(=O)N1C[C@@H](C)N(c2nc(OCCc3ccccn3)nc3c(F)c(-c4c(O)cccc4F)c(Cl)cc23)[C@@H](C)C1 [Compound 49, 1-((3S,5R)-4-(6-chloro-8-fluoro-7-(2-fluoro-6-hydroxyphenyl)-2-(2-(pyridin-2-yl)ethoxy)quinazolin-4-yl)-3,5-dimethyl-piperazin-1-yl) prop-2-en-1-one] |  | ++ (++ indicates binding activity from 50 to 90%)
11 | C=CC(=O)N1C[C@H](C)N(c2nc(N3CC(N(CC)CC)C3)nc3c(F)c(-c4c(C)ccc5[nH]ncc45)c(Cl)cc23)C[C@H]1C (atropisomer, axis not shown) [Compound 151, 1-((2R,5S)-4-(6-chloro-2-(3-(diethylamino)azetidin-1-yl)-8-fluoro-7-((R)-5-methyl-1H-indazol-4-yl)quinazolin-4-yl)-2,5-dimethyl-piperazin-1-yl) prop-2-en-1-one] | +++ (+++ indicates binding activity greater than 90%) | 
12 | C=CC(=O)N1C[C@H](C)N(c2nc(OCCc3ncccn3)nc3c(F)c(-c4c(O)cccc4F)c(Cl)cc23)C[C@H]1C [Compound 198, 1-((2R,5S)-4-(6-chloro-8-fluoro-7-(2-fluoro-6-hydroxyphenyl)-2-(2-(pyrimidin-2-yl)ethoxy)quinazolin-4-yl)-2,5-dimethyl-piperazin-1-yl) prop-2-en-1-one] | +++ (+++ indicates binding activity greater than 90%) | 
13 | C=CC(=O)N1C[C@H](C)N(c2nc(N3CC(N(C)C)C3)nc3c(F)c(-c4c(C)ccc5[nH]ncc45)c(C(F)(F)F)cc23)C[C@H]1C [Compound 189, 1-((2R,5S)-4-(2-(3-(dimethylamino)azetidin-1-yl)-8-fluoro-7-(5-methyl-1H-indazol-4-yl)-6-(trifluoromethyl)quinazolin-4-yl)-2,5-dimethyl-piperazin-1-yl) prop-2-en-1-one] | +++ (+++ indicates binding activity greater than 90%) | 
14 | C=CC(=O)N1C[C@H](C)N(c2nc(COCc3ncccc3F)nc3c(F)c(-c4c(O)cccc4F)c(Cl)cc23)C[C@H]1C [Compound 141, 1-((2R,5S)-4-(6-chloro-8-fluoro-7-(2-fluoro-6-hydroxyphenyl)-2-(((3-fluoro-pyridin-2-yl)methoxy)methyl)quinazolin-4-yl)-2,5-dimethyl-piperazin-1-yl) prop-2-en-1-one] | ++ (++ indicates binding activity from 50 to 90%) | 
15 | C=CC(=O)N1C[C@@H](C)N(c2nc(OCCN3CC(F)(F)C3)nc3c(F)c(-c4c(C)ccc5[nH]ncc45)c(Cl)cc23)[C@@H](C)C1 [Compound 45, 1-((3S,5R)-4-(6-chloro-2-(2-(3,3-difluoroazetidin-1-yl)ethoxy)-8-fluoro-7-(5-methyl-1H-indazol-4-yl)quinazolin-4-yl)-3,5-dimethyl-piperazin-1-yl) prop-2-en-1-one] |  | ++ (++ indicates binding activity from 50 to 90%)
16 | C=CC(=O)N1[C@H](C)CN(c2nc(N3CC(N(C)C)C3)nc3c(F)c(-c4c(C)ccc5cn[nH]c45)c(Cl)cc23)C[C@@H]1C [Compound 27, 1-((2R,6S)-4-(6-chloro-2-(3-(dimethylamino)azetidin-1-yl)-8-fluoro-7-(6-methyl-1H-indazol-7-yl)quinazolin-4-yl)-2,6-dimethyl-piperazin-1-yl) prop-2-en-1-one] |  | ++ (++ indicates binding activity from 50 to 90%)
17 | C=CC(=O)N1C[C@H](C)N(c2nc(Oc3cnn(C)c3)nc3c(F)c(-c4c(C)ccc5[nH]ncc45)c(Cl)cc23)C[C@H]1C [Compound 217, 1-((2R,5S)-4-(6-chloro-8-fluoro-7-(5-methyl-1H-indazol-4-yl)-2-(1-methyl-1H-pyrazol-4-yloxy)quinazolin-4-yl)-2,5-dimethyl-piperazin-1-yl) prop-2-en-1-one] | ++ (++ indicates binding activity from 50 to 90%) | 
18 | C=CC(=O)N1C[C@H](C)N(c2nc(N3CC(N(C)C)C3)nc3c(F)c(-c4c(F)cccc4F)c(Cl)cc23)C[C@H]1C [Compound 180, 1-((2R,5S)-4-(6-chloro-7-(2,6-difluorophenyl)-2-(3-(dimethyl-amino)azetidin-1-yl)-8-fluoro-quinazolin-4-yl)-2,5-dimethyl-piperazin-1-yl) prop-2-en-1-one] | + (+ indicates binding activity greater than 0% and up to 50%) | 
19 | C=CC(=O)N1C[C@H](C)N(c2nc(OCCN3CC(F)(F)C3)nc3c(F)c(-c4c(O)cccc4F)c(Cl)cc23)C[C@H]1C (atropisomer, axis not shown) [Compound 90, 1-((2R,5S)-4-(6-chloro-2-(2-(3,3-difluoroazetidin-1-yl)ethoxy)-8-fluoro-7-((S)-2-fluoro-6-hydroxyphenyl)quinazolin-4-yl)-2,5-dimethyl-piperazin-1-yl) prop-2-en-1-one] | +++ (+++ indicates binding activity greater than 90%) | 
20 | C=CC(=O)N1C[C@H](C)N(c2nc(N3CC(N(CC)CC)C3)nc3c(F)c(-c4c(C)ccc5cn[nH]c45)c(Cl)cc23)C[C@H]1C [Compound 117, 1-((2R,5S)-4-(6-chloro-2-(3-(diethylamino)azetidin-1-yl)-8-fluoro-7-(6-methyl-1H-indazol-7-yl)quinazolin-4-yl)-2,5-dimethyl-piperazin-1-yl) prop-2-en-1-one] | + (+ indicates binding activity greater than 0% and up to 50%) | 
21 | C=CC(=O)N1C[C@H](C)N(c2nc(OCCc3ccccn3)nc3c(F)c(-c4c(O)cccc4F)c(Cl)cc23)C[C@H]1C [Compound 65, 1-((2R,5S)-4-(6-chloro-8-fluoro-7-(2-fluoro-6-hydroxyphenyl)-2-(2-(pyridin-2-yl)ethoxy)quinazolin-4-yl)-2,5-dimethyl-piperazin-1-yl) prop-2-en-1-one] |  | +++ (+++ indicates binding activity greater than 90%)
